In patent US9738595B2, “Carboxamide compounds” (SYNGENTA PARTICIPATIONS AG, priority 2013, dated 2017):

Q: With `CC(C)(NC(=O)c1c(F)cccc1F)C(=O)c1ccc([C@H]2C[C@@H]2C(=O)O)cc1` (racemic) [Compound 19.061, trans-2-[4-[2-[(2,6-Difluorobenzoyl)amino]-2-methyl-propanoyl]phenyl]cyclopropane carboxylic acid] as the compound, how does the melting point read?
A: 115 to 116 °C

Q: Which melting point does the source give for `CC(C)(NC(=O)c1c(F)cccc1F)C(=O)c1ccc([C@H]2C[C@@H]2C(F)(F)F)cc1` (racemic) [Compound 19.003, N-[1,1-dimethyl-2-oxo-2-[4-[trans-2-(trifluoromethyl)-1-cyclopropyl]phenyl]ethyl]-2,6-difluoro-benzamide] here?
A: 65 to 82 °C

Q: With `CC(C)(C)OC(=O)N[C@H]1C[C@@H]1c1ccc(C(=O)C(C)(C)NC(=O)c2c(F)cccc2F)cc1` (racemic) [Compound 19.062, trans-tert-Butyl N-[2-[4-[2-[(2,6-difluorobenzoyl)amino]-2-methyl-propanoyl]phenyl]cyclopropyl]carbamate] as the compound, how does the melting point read?
A: 197 to 198 °C

Q: Which melting point does the source give for `CC(C)(NC(=O)c1c(F)cccc1F)C(=O)c1ccc(C2CC2)cc1` [Compound 19.001, N-[2-(4-cyclopropylphenyl)-1,1-dimethyl-2-oxo-ethyl]-2,6-difluoro-benzamide] here?
A: 121 to 123 °C
